System: (single deposited) (rabbit) B-cells
Assay: Co-cultivation of single deposited B-cells with EL-4 B5 feeder cells, quantification of IgG in supernatant by ELISA
Format: cell-based
Method: Generally, the 96-well multi well plate in which the co-cultivation was performed was centrifuged after seven days of co-cultivation at 300×g for 5 min. 150 μl supernatant was removed and diluted at a ratio of 2:1 with PBS in a second 96-well multi well plate. The antibody was used at a concentration of 50 ng/ml. If the OD was or exceeded 1 after an incubation time of 5 min. a dilution series of from 0.8 to 108 ng/ml IgG was tested.
Specifically, a mixture of 0.5 μg/ml of biotinylated mouse anti-rabbit IgG antibody (Sigma-Aldrich) and 0.35 μg/ml anti-rabbit IgG HRP conjugate (Sigma-Aldrich) was transferred to 384 well streptavidin coated microtiter plates (MicroCoat Biotechnologie GmbH). Dilutions of B-cell supernatants in PBS supplemented with 0.5% BSA and 0.05% Tween®-20 were added and incubated for 90 min at RT. After repeated washing (6×) with PBST (phosphate buffered saline with 0.2% Tween®-20) buffer the plates were developed with BM Blue® HRP substrate solution and color formation was measured by absorbance at 370 nm. A commercial rabbit IgG (Sigma-Aldrich) was used as a calibration standard.
Single cell sorted B-cells were cultured in 96-well plates with 200 μl/well EL-4 B5 medium with Pansorbin Cells (SAC) (Calbiochem (Merck), Darmstadt, Deutschland), EL-4 B5 cells (5×10^4/well) and rabbit thymocyte supernatant (TSN) or cytokine mix (CM) with PMA, respectively, for 7 days at 37° C. in an atmosphere of 5% CO2 in the incubator. B-cell culture supernatants were removed for screening and the cells harvested immediately for variable region gene cloning or frozen at −80° C. in 100 μl RLT buffer (Qiagen, Hilden, Germany).

[1] = PMA alone, in the absence of cytokines and interleukins

CCCCCCCCCCCCCC(=O)O[C@@H]1[C@@H](C)[C@@]2(O)[C@@H](C=C(CO)C[C@]3(O)C(=O)C(C)=C[C@@H]23)[C@@H]2C(C)(C)[C@]12OC(C)=O [PMA, (1aR,1bS,4aR,7aS,7bS,8R,9R,9aS)-9a-(acetyloxy)-4a,7b-dihydroxy-3-(hydroxymethyl)-1,1,6,8-tetramethyl-5-oxo-1a,1b,4,4a,5,7a,7b,8,9,9a-decahydro-H-cyclopropa[3,4]benzo[1,2-e]azulen-9-yl myristate]
IgG+ wells [% total] (PMA 0.002 ng/ml, 0.1×CM): + | IgG+ wells [% total] (PMA 0.011 ng/ml, 0.1×CM): + | productivity IgG+ [μg/ml] (PMA 0.011 ng/ml, 0.1×CM): + | IgG+ wells [% total] (PMA 0.054 ng/ml, 0.1×CM): ++++ | productivity IgG+ [μg/ml] (PMA 0.054 ng/ml, 0.1×CM): +++ | Average IgG productivity (PMA 0.095 ng/ml, CM 1x): 1.390 µg/mL | Number of IgG positive wells [% of total] (PMA 0.095 ng/ml, CM 1x): 38.1 % of total | productivity IgG+ [μg/ml] (PMA 0.127 ng/ml, 0.032×CM): + | IgG+ wells [% total] (PMA 0.127 ng/ml, 0.1×CM): ++ | productivity IgG+ [μg/ml] (PMA 0.127 ng/ml, 0.1×CM): ++++ | IgG+ wells [% total] (PMA 0.225 ng/ml, 0.1×CM): +++++ | productivity IgG+ [μg/ml] (PMA 0.225 ng/ml, 0.1×CM): +++++ | IgG+ wells [% total] (PMA 0.3 ng/ml, 0.032×CM): ++++ | productivity IgG+ [μg/ml] (PMA 0.3 ng/ml, 0.032×CM): +++ | IgG+ wells [% total] (PMA 0.3 ng/ml, 0.1×CM): +++++ | productivity IgG+ [μg/ml] (PMA 0.3 ng/ml, 0.1×CM): +++++ | Average IgG productivity (PMA 0.3 ng/ml, CM 0.01x): 1.931 µg/mL | Number of IgG positive wells [% of total] (PMA 0.3 ng/ml, CM 0.01x): 69.0 % of total | Average IgG productivity (PMA 0.3 ng/ml, CM 0.032x): 3.476 µg/mL | Number of IgG positive wells [% of total] (PMA 0.3 ng/ml, CM 0.032x): 70.2 % of total | Average IgG productivity (PMA 0.3 ng/ml, CM 0.1x): 4.450 µg/mL | Number of IgG positive wells [% of total] (PMA 0.3 ng/ml, CM 0.1x): 67.9 % of total | Average IgG productivity (PMA 0.3 ng/ml, CM 0.32x): 2.662 µg/mL | Number of IgG positive wells [% of total] (PMA 0.3 ng/ml, CM 0.32x): 57.1 % of total | Average IgG productivity (PMA 0.3 ng/ml, CM 1x): 0.720 µg/mL | Number of IgG positive wells [% of total] (PMA 0.3 ng/ml, CM 1x): 17.9 % of total | IgG+ wells [% total] (PMA 0.534 ng/ml, 0.032×CM): ++ | productivity IgG+ [μg/ml] (PMA 0.534 ng/ml, 0.032×CM): +++ | IgG+ wells [% total] (PMA 0.534 ng/ml, 0.1×CM): +++++ | productivity IgG+ [μg/ml] (PMA 0.534 ng/ml, 0.1×CM): +++ | IgG+ wells [% total] (PMA 0.712 ng/ml, 0.032×CM): ++ | productivity IgG+ [μg/ml] (PMA 0.712 ng/ml, 0.032×CM): +++ | IgG+ wells [% total] (PMA 0.712 ng/ml, 0.1×CM): +++ | productivity IgG+ [μg/ml] (PMA 0.712 ng/ml, 0.1×CM): ++ | IgG+ wells [% total] (PMA 0.949 ng/ml, 0.032×CM): ++++ | productivity IgG+ [μg/ml] (PMA 0.949 ng/ml, 0.032×CM): +++++ | Average IgG productivity (PMA 0.95 ng/ml, CM 0x): 1.650 µg/mL | Number of IgG positive wells [% of total] (PMA 0.95 ng/ml, CM 0x): 28.6 % of total | Average IgG productivity (PMA 0.95 ng/ml, CM 0.01x): 4.235 µg/mL | Number of IgG positive wells [% of total] (PMA 0.95 ng/ml, CM 0.01x): 69.0 % of total | Average IgG productivity (PMA 0.95 ng/ml, CM 0.032x): 5.340 µg/mL | Number of IgG positive wells [% of total] (PMA 0.95 ng/ml, CM 0.032x): 67.9 % of total | Average IgG productivity (PMA 0.95 ng/ml, CM 0.1x): 1.623 µg/mL | Number of IgG positive wells [% of total] (PMA 0.95 ng/ml, CM 0.1x): 50.0 % of total | Average IgG productivity (PMA 0.95 ng/ml, CM 0.32x): 0.134 µg/mL | Number of IgG positive wells [% of total] (PMA 0.95 ng/ml, CM 0.32x): 23.8 % of total | Average IgG productivity (PMA 0.95 ng/ml, CM 1x): 0.100 µg/mL | Number of IgG positive wells [% of total] (PMA 0.95 ng/ml, CM 1x): 8.3 % of total | IgG+ wells [% total] (PMA 0.95 ng/ml, without CM): + | productivity IgG+ [μg/ml] (PMA 0.95 ng/ml, without CM): + | IgG+ wells [% total] (PMA 1.266 ng/ml, 0.032×CM): +++ | productivity IgG+ [μg/ml] (PMA 1.266 ng/ml, 0.032×CM): +++++ | IgG+ wells [% total] (PMA 1.688 ng/ml, 0.032×CM): +++++ | productivity IgG+ [μg/ml] (PMA 1.688 ng/ml, 0.032×CM): +++++ | IgG+ wells [% total] (PMA 1.688 ng/ml, without CM): ++ | productivity IgG+ [μg/ml] (PMA 1.688 ng/ml, without CM): +++ | IgG+ wells [% total] (PMA 2.25 ng/ml, 0.032×CM): ++++ | productivity IgG+ [μg/ml] (PMA 2.25 ng/ml, 0.032×CM): ++++ | IgG+ wells [% total] (PMA 2.251 ng/ml, without CM): +++++ | productivity IgG+ [μg/ml] (PMA 2.251 ng/ml, without CM): +++++ | Average IgG productivity (PMA 3 ng/ml, CM 0.01x): 3.893 µg/mL | Number of IgG positive wells [% of total] (PMA 3 ng/ml, CM 0.01x): 69.0 % of total | Average IgG productivity (PMA 3 ng/ml, CM 0.032x): 3.480 µg/mL | Number of IgG positive wells [% of total] (PMA 3 ng/ml, CM 0.032x): 72.6 % of total | Average IgG productivity (PMA 3 ng/ml, CM 0.1x): 0.363 µg/mL | Number of IgG positive wells [% of total] (PMA 3 ng/ml, CM 0.1x): 35.7 % of total | Average IgG productivity (PMA 3 ng/ml, CM 0.32x): 0.125 µg/mL | Number of IgG positive wells [% of total] (PMA 3 ng/ml, CM 0.32x): 13.1 % of total | Average IgG productivity (PMA 3 ng/ml, CM 1x): 0.351 µg/mL | Number of IgG positive wells [% of total] (PMA 3 ng/ml, CM 1x): 13.1 % of total | IgG+ wells [% total] (PMA 3.999 ng/ml, without CM): +++ | productivity IgG+ [μg/ml] (PMA 3.999 ng/ml, without CM): +++ | IgG+ wells [% total] (PMA 5.331 ng/ml, without CM): ++++ | productivity IgG+ [μg/ml] (PMA 5.331 ng/ml, without CM): +++++ | IgG+ wells [% total] (PMA 7.106 ng/ml, without CM): +++++ | productivity IgG+ [μg/ml] (PMA 7.106 ng/ml, without CM): ++ | numbers of IgG positive wells [1]: comparable | productivity [1]: increased

— US12698474B2, “B-cell cultivation method” (priority 2017, dated 2026)
